Series [1] concerns RSV A clinical isolates and laboratory strains. The experiment in a line: Inhibition of RSV-A clinical isolates and laboratory strains, RT-qPCR, HeLa. In kind it is cell-based. The following applies: human respiratory syncytial virus, 10 strains, read-out: Median EC50. How it is done:
Then, 100 µL of a HeLa cell suspension (5 × 10^4 cells/mL) in culture medium was added to each well. […] After 3 days of incubation, the supernatant was removed from wells. Plates were washed twice with ice-cold PBS (100 µL/well), and were then sealed and stored overnight at −80 °C. Next, 50 µL of lysis solution supplemented with DNAse was added to the plates and incubated for 5 min followed by the addition of 5 µL stop solution (Ambion Cell-to-CT bulk lysis reagent buffer). […] Roche) for cDNA synthesis. Reverse transcription was performed at 42 °C for 30 min, followed by denaturation at 95 °C for 5 min. […] The reaction consisted of a denaturation step (95 °C for 600 s), 45 cycles of denaturation (95 °C for 15 s) and annealing/elongation (60 °C for 60 s), and a step of cooling (40 °C for 10 s).

Series [2] is described as follows: Cell viability of replicon cell line (CellTiter-Glo). The series is classed as cell-based. The following applies: hamster, APC-126 cells (BHK-derived, stable RSV A2 replicon); APC-126, CellTiter-Glo. How it is done: The RSV subgenomic replicon system was licensed from Apath (Apath, NY, USA)[49],[50]. The BHK-derived cell line (APC-126) containing the stable RSV A2 replicon was cultured in DMEM/Hams F-12 medium supplemented with 10% (v/v) FBS (Gibco), 1% (v/v) penicillin (10,000 units/mL) and streptomycin (10,000 µg/mL) solution (Gibco), 1% (v/v) MEM non-essential amino acids solution (Gibco), 5% (v/v) Tryptose Phosphate Broth solution (29.5 g/l) (Sigma-Aldrich) and 10 µg/ml of blasticidin solution (Invivogen). Cells were maintained at 37 °C in a humidified 5% CO2 atmosphere. 5000 cells were plated in 96-well clear plates (Corning) in 100 µl/well of medium. […] Cell viability (CC50 and CC90) was measured with a CellTiter-Glo cell proliferation assay (Promega, 100 µl/well of reagent). Results were expressed as EC50 and EC90 values as well as CC50 and CC90 values.

Series [3] has as its target T1, Human DNA polymerase beta (Homo sapiens, UniProt P06746).
T1 construct: purchased CHIMERx
The experiment in a line: DNA-dependent DNA polymerase activity. The series is classed as biochemical. The settings on record: DNA Pol β. How it is done:
to the method described previously 1. A 25 nM solution of RSV MTase-CTD protein or RSV L+P complex was incubated with 0.7 µM or 1.8 µM purified synthetic RNA 5’-Gppp […]
[…] (RSV9) for the MTase-CTD or L+P complex, respectively; 2 µM or 0.17 µM S-adenosyl methionine (SAM) for the MTase-CTD or L–P complex, respectively; and 0.1 µM or 0.8 µM 3H-SAM (Perkin Elmer) for the MTase-CTD or L–P complex, respectively; in 50 mM Tris-HCl pH 8.0. Compounds, previously dissolved in DMSO were added at a final concentration of 50 µM or 200 µM. After 3 h incubation at 30°C, reactions were quenched by a 20-fold dilution in ice cold water. Samples were transferred to DEAE filtermats (Perkin Elmer) using a Filtermat Harvester (Packard Instruments). The RNA-retaining mats were washed twice with 10 mM ammonium formate pH 8.0, twice with water and once with ethanol. They were then soaked with scintillation fluid (Perkin Elmer), and 3H-methyl transfer to the RNA substrates was determined using a Wallac MicroBeta TriLux Liquid Scintillation Counter.
Cellular polymerase assays
DNA-dependant DNA polymerase (DdDp) activity
Human DNA polymerases alpha (CHIMERx) at 5 U/ml, beta (CHIMERx) at 0.5 U/ml and gamma (Abcam) at 0.1 mg/ml were incubated with the tested inhibitors at specified concentrations, and a reaction mix composed of 62 µg/ml activated calf thymus DNA, dGTP (2 µM), dATP (2 µM), dCTP (2 µM), [ 3H]dTTP (0.05 µCi/µl), 0.1 mg/ml BSA and a buffer composed of Tris-HCl pH 8 (50 mM), MgCl 2 (5 mM), KCl (60 mM), and DTT (4 mM.) in a total volume of 50 µl. After 2 hours incubation at 30°C, reaction was terminated by addition of 60 µl of a chilled stop solution composed of 20% (w/v) TCA with 0.5 mM ATP. […] Radioactivity was measured via liquid scintillation counting (MicroScint-20, 40µl) on a TriLux apparatus. […]
The RNA transcription activity of human mitochondrial RNA polymerase (POLRMT) was measured by the incorporation of radioactively labeled nucleotides by POLRMT into acid-insoluble RNA products as described previously 2. […]

A value given as a limit tells only on which side of the number the result lay.

Usually EC50 stands for the concentration at which the effect is half-maximal. The term CC50 denotes the concentration giving 50% cytotoxicity. Low readings indicate greater toxicity to the cells, high ones lower toxicity to the cells. In general, IC50 refers to the concentration at which inhibition is half-maximal. Consider `COc1cc(C(=O)NC[C@](O)(c2cc(C(C)(C)O)c(F)c(-c3ccc(F)cc3)n2)C(F)(F)F)cc2cc(C)nnc12` [JNJ-8003], for which the EC50 in series [1] was determined as 0.00018 µM. Further, the CC50 at 3 days in series [2] turned out to be 11 µM. Besides, the IC50 in series [3] is more than 100 µM.

(Values after publication PMC10590419, “Structural and mechanistic insights into the inhibition of respiratory syncytial virus polymerase by a non-nucleoside inhibitor” (Communications Biology, 2023).)
